Results from patent publication EP0337503B1, “Fumigation methods and compositions” (Entek Corporation, priority 1983, dated 1984).

Columns and labels:
Fusarium oxysporum = experiment: Fungicidal test, radial growth of mycelia colonies; format: cell-based; settings: listed as CaCS4 (2.8%CS2)
Method: (§1) Thiocarbonate solutions are used in a test of their fungicidal properties. Cultures of four plant pathogenic fungi are grown upon potato dextrose agar at room temperature, in diffuse natural lighting. After one week, square blocks having 2 millimeter sides are cut from the edges of actively growing mycelia spots on the agar.
(§2) The blocks are immersed in sterile deionized water, as a control, or in dilutions of thiocarbonate solutions using the sterile water, in a closed container. Subsequently, the blocks are removed and placed upon agar in clean plates, and mycelia are allowed to grow for one week.
(§3) Radial growth of mycelia colonies is measured for each of the six to eight replicate plates used for a particular fungus, and average colony radius is calculated. Percent control is defined by the following equation: Percent control =[1-((Average radius of treated plates)/(Average radius of control plates))]x100 [formula]
(§4) Concentrations given for solutions used to treat the agar blocks are expressed in grams of thiocarbonate solution per liter of diluted solution.

Verticillium dahliae = experiment: Fungicidal test, radial growth of mycelia colonies; format: cell-based
Method: as §1, §2, §3, §4

Phytophthora cinnamomi = experiment: Fungicidal test, radial growth of mycelia colonies; format: cell-based
Method: as §1, §2, §3, §4

Sclerotium rolfsii = experiment: Fungicidal test, radial growth of mycelia colonies; format: cell-based
Method: as §1, §2, §3, §4

[1] = Effect of pH on production of CS2 from thiocarbonates in citrate-phosphate buffers, gas chromatography of air; format: physicochemical
Method: Pure carbon disulfide is also injected, for comparison. A syringe is used to periodically sample air in the bottle, and the air is analyzed by gas chromatography.

[2] = Decomposition in sandy loam soil at different moisture, CS2 in air space by gas chromatography; format: physicochemical; settings: hours to maximum CS2 concentration in the air space
Method: A sandy loam soil is placed in 1-liter glass bottles, fitted with stoppers having fluorocarbon liners and silicone rubber septa, to give a soil depth of about 4 cm. […] Thiocarbonate solution or carbon disulfide is injected near the bottom of the soil layer, the bottles are promptly sealed, and the air space in the bottles is sampled at intervals with a syringe, for gas chromatographic analysis of CS2. Results are summarized below, wherein degradation time is the number of hours required to achieve the maximum CS2 concentration in the air space.

nematode larvae = experiment: In-vitro nematocidal test: larvae treated in aqueous suspension, injected into root zone of tomato plants, gall count; format: in vivo, Meloidogyne incognita; settings: larvae treated 1 hour; for Gall Count, replicate 2: control 88; for Gall Count, Mean: control 89; for Gall Count, replicate 1: control 90
Method: The procedure of Example 2 is repeated except that potassium tetrathiocarbonate is substituted for stabilized ammonium tetrathiocarbonate and an in-vitro nematocidal test is used. In the in-vitro test, the nematode larvae are treated in aqueous suspension for 1 hour at the concentrations of fumigant given in the following table, washed twice with water, and injected into the active root zone of the tomato plants. After thirty days the roots are harvested, examined for galling, giving the results summarized below.

[3] = Storage stability: loss of ability of aqueous solutions to generate carbon disulfide upon contact with strong acid; format: physicochemical; settings: aqueous solutions of tetrathiocarbonate salts, about 14 to about 16 percent by weight carbon disulfide equivalent, air-tight glass containers, 49° C.; listed as Ca^++
Method: Various tetrathiocarbonate salts are evaluated for storage stability by measuring the loss of the ability of aqueous solutions thereof to generate carbon disulfide upon contact with strong acid. Aqueous solutions of the salts listed in the following table, having an equivalent of from about 14 to about 16 percent by weight carbon disulfide, are stored in air-tight glass containers at a temperature of 49° C.

[4] = test system: root-knot nematode larvae (Meloidogyne incognita); experiment: Greenhouse nematocide experiment with tomato plants, soil drench, root gall count; format: in vivo; settings: 30 days; for Gall Counts, replicate 3: control 1; for Gall Counts, Mean: control 4.0; for Gall Counts, replicate 2: control 7; for Gall Counts, replicate 1: control 4
Method: In the experiment, thirty containers are used, each containing about 500 grams of sterilized sandy loam soil. Each container contains one tomato plant. Each container is injected with four 5-milliliter portions of extract from nematode-infested pepper roots, one inch below the soil surface, producing an initial population of 2000 root-knot nematode larvae (Meloidogyne incognita) per container.
Ten treatments are replicated three times, each treatment consisting of drenching the soil with a solution containing the fumigant to provide the dosage of CS2 given in the following table. The solutions are diluted with sufficient water to saturate the soil. The treatments include calcium tetrathiocarbonate, stabilized ammonium tetrathiocarbonate, and carbon disulfide at three levels, plus an untreated control. After drenching, each container is allowed to stand at ambient conditions. The plants are harvested after 30 days of growth, and soil is removed from the roots by a gentle washing with water. By use of a magnifying glass, the number of root galls is counted on each plant.
Results are summarized below, wherein the "Application" represents milligrams of treatment per kilogram of soil, calculated as the thiocarbonate salt and the equivalent carbon disulfide. Gall counts are mean values from the three replicates.

[5] = 1 g/l, listed as CaCS4 (2.8%CS2)
[6] = 10 g/l, listed as CaCS4 (2.8%CS2)
[7] = 50 ppm salt (6.3 ppm CS2 equiv. CaCS4; 6.5 ppm K2CS4)
[8] = 100 ppm salt (12.5 ppm CS2 equiv. CaCS4; 13 ppm K2CS4)
[9] = 150 ppm salt (18.8 ppm CS2 equiv. CaCS4; 19.5 ppm K2CS4)
[10] = highest application: 638/89 ppm ((NH4)2CS4·(NH4)2S), 730/91 (CaCS4), 97 ppm (CS2)
[11] = lowest application: 213/30 ppm ((NH4)2CS4·(NH4)2S), 245/31 (CaCS4), 32 ppm (CS2)
[12] = middle application: 425/60 ppm ((NH4)2CS4·(NH4)2S), 490/61 (CaCS4), 65 ppm (CS2)

SMILES: S=C(S)SS [CaCS4, calcium tetrathiocarbonate]
- Percent Control Fusarium oxysporum (Fusarium oxysporum; 1 g/l): 3%
- Percent Control Fusarium oxysporum (Fusarium oxysporum; 10 g/l): 18%
- Percent Control Fusarium oxysporum (Fusarium oxysporum; 100 g/l thiocarbonate solution per liter of diluted solution): 100%
- Percent Control Verticillium dahliae (Verticillium dahliae; [5]): 13%
- Percent Control Verticillium dahliae (Verticillium dahliae; [6]): 22%
- Percent Control Verticillium dahliae (Verticillium dahliae; 100 g/l): 100%
- Percent Control Phytophthora cinnamomi (Phytophthora cinnamomi; [5]): 56%
- Percent Control Phytophthora cinnamomi (Phytophthora cinnamomi; [6]): 56%
- Percent Control Phytophthora cinnamomi (Phytophthora cinnamomi; 100 g/l): 100%
- Percent Control Sclerotium rolfsii (Sclerotium rolfsii; [5]): 46%
- Percent Control Sclerotium rolfsii (Sclerotium rolfsii; [6]): 62%
- Percent Control Sclerotium rolfsii (Sclerotium rolfsii; 100 g/l): 100%
- Half-life (minutes) for production of carbon disulfide ([1]; pH 5.2, 125 milligrams per liter of thiocarbonate ion): 1 min
- Half-life (minutes) for production of carbon disulfide ([1]; pH 6.0, 125 milligrams per liter of thiocarbonate ion): 1.8 min
- Half-life (minutes) for production of carbon disulfide ([1]; pH 7.0, 125 milligrams per liter of thiocarbonate ion): 2.7 min
- Half-life (minutes) for production of carbon disulfide ([1]; pH 8.0, 125 milligrams per liter of thiocarbonate ion, CaCS4 values above pH 7 called unreliable): 8.0 min
- Half-life (minutes) for production of carbon disulfide ([1]; pH 9.0, 125 milligrams per liter of thiocarbonate ion, CaCS4 values above pH 7 called unreliable): 11.3 min
- Degradation Time ([2]; Soil Moisture 0 % of Saturation): 4 h
- Degradation Time ([2]; Soil Moisture 50 % of Saturation): 5 h
- Degradation Time ([2]; Soil Moisture 100 % of Saturation): 48 h
- Gall Count, replicate 2 (nematode larvae; [7]): 149
- Gall Count, Mean (nematode larvae; [7]): 167
- Gall Count, replicate 1 (nematode larvae; [7]): 185
- Gall Count, replicate 2 (nematode larvae; [8]): 184
- Gall Count, Mean (nematode larvae; [8]): 158
- Gall Count, replicate 1 (nematode larvae; [8]): 132
- Gall Count, replicate 2 (nematode larvae; [9]): 66
- Gall Count, Mean (nematode larvae; [9]): 49
- Gall Count, replicate 1 (nematode larvae; [9]): 32
- Half-life (months) [3]: 5.0 months
- Gall Counts, replicate 3 [4, 10]: 9
- Gall Counts, Mean [4, 10]: 7.0
- Gall Counts, replicate 2 [4, 10]: 9
- Gall Counts, replicate 1 ([4]; highest application: 638 ppm salt/89 ppm Eq. CS2 ((NH4)2CS4·(NH4)2S), 730/91 (CaCS4), 97 ppm (CS2)): 3
- Gall Counts, replicate 3 [4, 11]: 23
- Gall Counts, Mean [4, 11]: 15.7
- Gall Counts, replicate 2 [4, 11]: 8
- Gall Counts, replicate 1 ([4]; lowest application: 213 ppm salt/30 ppm Eq. CS2 ((NH4)2CS4·(NH4)2S), 245/31 (CaCS4), 32 ppm (CS2)): 16
- Gall Counts, replicate 3 [4, 12]: 7
- Gall Counts, Mean [4, 12]: 7.3
- Gall Counts, replicate 2 [4, 12]: 4
- Gall Counts, replicate 1 ([4]; middle application: 425 ppm salt/60 ppm Eq. CS2 ((NH4)2CS4·(NH4)2S), 490/61 (CaCS4), 65 ppm (CS2)): 11
